Structures are written as SMILES. pIC50: −log10 of the molar value.

The target in one assay is T1, Human plasma kallikrein (Homo sapiens, UniProt P03952).
T1 construct: yields a heavy chain (371 amino acids) and a light chain (248 amino acids); purchased Enzyme Research Laboratories
Kind of assay: Plasma Kallikrein Assay. The class given is biochemical. Conditions: purified Human plasma kallikrein 0.5 nM, substrate Acetyl-K-P-R-AFC, HEPES pH 7.4, fluorescence 405 Ex/510 Em; read-out: PKal IC50. As to the method: (§1) The effectiveness of a compound of the present invention as an inhibitor of plasma kallikrein can be determined using a relevant purified serine protease, and an appropriate synthetic substrate. The rate of hydrolysis of the chromogenic or fluorogenic substrate by the relevant serine protease was measured both in the absence and presence of compounds of the present invention. Assays were conducted at rt or at 37° C. […] A decrease in the rate of fluorescence change in the presence of inhibitor is indicative of enzyme inhibition. Such methods are known to one skilled in the art. The results of this assay are expressed as the half-maximal inhibitory concentrations (IC50), or the inhibitory constant, Ki.
Plasma kallikrein determinations were made in 50 mM HEPES buffer at pH 7.4 containing 150 mM NaCl, 5 mM CaCl2), and 0.1% PEG 8000 (polyethylene glycol: Fisher Scientific). Determinations were made using purified Human plasma kallikrein at a final concentration of 0.5 nM (Enzyme Research Laboratories) and the synthetic substrate, Acetyl-K-P-R-AFC (Sigma #C6608) at a concentration of […].
Activity assays were performed by diluting a stock solution of substrate at least tenfold to a final concentration ≤0.2 Km into a solution containing enzyme or enzyme equilibrated with inhibitor. Times required to achieve equilibration between enzyme and inhibitor were determined in control experiments. The reactions were performed under linear progress curve conditions and fluorescence increase measured at 405 Ex/510 Em nm. Values were converted to percent inhibition of the control reaction (after subtracting 100% Inhibition value). IC50 was determined by inflection point from a four parameter logistic curve fit. Ki was calculated using the Cheng Prusoff equation, Ki=IC50/(1+([S]/Km)).

A further assay deals with human factor XIa (Homo sapiens, UniProt P03951). The assay can be described thus: Factor XIa Assay. The following applies: human factor XIa 0.04 nM, 30 min pre-incubation at 25° C., substrate GPR-AFC, pH 7.4, 60 min incubation; read-out: FXIa IC50. Format: biochemical. The protocol:
as §1, with “Coagulation factor XIa” for “plasma kallikrein”
Compounds were pre-incubated for 30 min at 25° C. with human (0.04 nM) factor XIa in 50 mM HEPES buffer with 150 mM sodium chloride, 5 mM calcium chloride, 0.1% PEG 8000, pH 7.4. factor XIa enzymatic activity was determined by addition of the substrate glycine-proline-arginine-7-amido-4-trifluoromethylcoumarin (GPR-AFC) and measurement of the fluorescence at 400/505 nm after a 60 min incubation at 25° C. The % inhibition for each data point was calculated from the data and analyzed using the log (inhibitor) vs. response four parameters equation to determine the half-maximal inhibitory concentrations (IC50). The IC50 were converted to equilibrium inhibitory constants (Ki) using the Cheng-Prusoff equation.

T1 sequence (P03952 391-638 limits assumed): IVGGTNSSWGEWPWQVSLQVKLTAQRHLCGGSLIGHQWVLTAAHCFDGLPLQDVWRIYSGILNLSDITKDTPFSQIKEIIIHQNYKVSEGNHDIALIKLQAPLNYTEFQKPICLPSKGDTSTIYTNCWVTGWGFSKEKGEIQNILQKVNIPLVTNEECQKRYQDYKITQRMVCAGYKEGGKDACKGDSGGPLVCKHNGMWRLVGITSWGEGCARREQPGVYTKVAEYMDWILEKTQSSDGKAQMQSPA
T1 sequence (P03952 20-390 partner limits assumed): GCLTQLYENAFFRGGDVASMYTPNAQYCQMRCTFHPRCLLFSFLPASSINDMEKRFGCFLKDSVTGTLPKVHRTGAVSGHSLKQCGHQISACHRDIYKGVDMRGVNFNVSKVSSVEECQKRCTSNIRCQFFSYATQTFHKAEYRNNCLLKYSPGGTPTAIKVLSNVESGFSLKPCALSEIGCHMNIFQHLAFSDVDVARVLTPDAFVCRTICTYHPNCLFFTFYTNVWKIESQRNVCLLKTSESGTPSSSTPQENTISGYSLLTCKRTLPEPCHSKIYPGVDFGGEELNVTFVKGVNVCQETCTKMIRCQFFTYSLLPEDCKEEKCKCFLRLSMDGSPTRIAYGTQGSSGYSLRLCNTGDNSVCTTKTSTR
Sequence of human factor XIa (P03951 388-625 limits assumed): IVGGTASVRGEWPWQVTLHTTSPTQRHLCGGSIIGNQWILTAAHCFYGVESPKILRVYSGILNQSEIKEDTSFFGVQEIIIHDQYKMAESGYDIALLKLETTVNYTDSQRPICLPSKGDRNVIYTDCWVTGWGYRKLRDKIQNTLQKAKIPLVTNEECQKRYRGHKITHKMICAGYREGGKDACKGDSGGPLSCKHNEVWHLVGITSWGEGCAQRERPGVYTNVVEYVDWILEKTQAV
Sequence of human factor XIa (P03951 19-387 partner limits assumed): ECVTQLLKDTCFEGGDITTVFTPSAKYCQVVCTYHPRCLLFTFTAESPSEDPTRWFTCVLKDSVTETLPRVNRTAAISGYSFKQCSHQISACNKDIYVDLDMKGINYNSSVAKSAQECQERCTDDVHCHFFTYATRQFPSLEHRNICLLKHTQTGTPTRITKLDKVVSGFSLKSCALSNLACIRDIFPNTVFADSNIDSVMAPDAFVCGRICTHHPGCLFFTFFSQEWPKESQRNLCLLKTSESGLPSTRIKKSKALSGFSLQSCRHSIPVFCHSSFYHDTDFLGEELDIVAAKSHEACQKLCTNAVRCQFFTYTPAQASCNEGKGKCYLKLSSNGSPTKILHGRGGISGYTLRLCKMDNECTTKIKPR

For orientation: pIC50 means the IC50 on a negative log10 scale, so that one unit is a factor of ten. As for `Nc1c(Cl)c(-c2ccc(F)cc2F)nn1CC(=O)N1CCC[C@@]2(C1)OC(=O)Nc1ccc(Cl)c(F)c12` [Example 21, (R)-1′-(2-(5-Amino-4-chloro-3-(2,4-difluorophenyl)-1H-pyrazol-1-yl)acetyl)-6-chloro-5-fluorospiro[benzo[d][1,3]oxazine-4,3′-piperidin]-2(1H)-one], the negative-log IC50 (pIC50) at Human plasma kallikrein is 7.72; on human factor XIa, 6.49.

For `Nc1c(Cl)c(-c2ccccc2)nn1CC(=O)N1CCC[C@@]2(C1)OC(=O)Nc1ccc(Cl)c(F)c12` [Example 22, (R)-1′-(2-(5-Amino-4-chloro-3-phenyl-1H-pyrazol-1-yl)acetyl)-6-chloro-5-fluorospiro[benzo[d][1,3]oxazine-4,3′-piperidin]-2(1H)-one], the pIC50 is 7.58 at Human plasma kallikrein and 6.29 on human factor XIa.

On to `Nc1cc(-c2ccccc2)nn1CC(=O)N1CCC[C@@]2(C1)OC(=O)Nc1ccc(Cl)c(F)c12` [Example 23, (R)-1′-(2-(5-Amino-3-phenyl-1H-pyrazol-1-yl)acetyl)-6-chloro-5-fluorospiro[benzo[d][1,3]oxazine-4,3′-piperidin]-2(1H)-one], for which the negative logarithm of the IC50 (pIC50) is 7.93 at Human plasma kallikrein and 5.75 on human factor XIa.

Regarding `Nc1cc(-c2ccccc2)nn1CC(=O)N1CC[C@@]2(C1)OC(=O)Nc1ccc(Cl)c(F)c12` [Example 24, (R)-1′-(2-(5-Amino-3-phenyl-1H-pyrazol-1-yl)acetyl)-6-chloro-5-fluorospiro[benzo[d][1,3]oxazine-4,3'-pyrrolidin]-2(1H)-one], the figures for the pIC50 at Human plasma kallikrein and on human factor XIa were 7.81 and 6.94, respectively.

With `Nc1cc(-c2cccnn2)nn1CC(=O)N1CC[C@@]2(C1)OC(=O)Nc1ccc(Cl)c(F)c12` [Example 25, (R)-1′-(2-(5-Amino-3-(pyridazin-3-yl)-1H-pyrazol-1-yl)acetyl)-6-chloro-5-fluorospiro[benzo[d][1,3]oxazine-4,3′-pyrrolidin]-2(1H)-one], the pIC50 on Human plasma kallikrein was 7.90; at human factor XIa it was 6.44.

For the compound `Nc1c2c(nn1CC(=O)N1CCC[C@@]3(C1)OC(=O)Nc1ccc(Cl)c(F)c13)CCCC2` [Example 26, (R)-1′-(2-(3-Amino-4,5,6,7-tetrahydro-2H-indazol-2-yl)acetyl)-6-chloro-5-fluorospiro[benzo[d][1,3]oxazine-4,3′-piperidin]-2(1H)-one], the figures for the pIC50 at Human plasma kallikrein and on human factor XIa were 7.65 and 6.32, respectively.

For `Nc1cc(-c2ncc(F)cc2F)nn1CC(=O)N1CC[C@@]2(C1)OC(=O)Nc1ccc(Cl)c(F)c12` [Example 27, (R)-1′-(2-(5-Amino-3-(3,5-difluoropyridin-2-yl)-1H-pyrazol-1-yl)acetyl)-6-chloro-5-fluorospiro[benzo[d][1,3]oxazine-4,3′-pyrrolidin]-2(1H)-one], the pIC50 at Human plasma kallikrein was 7.60; at human factor XIa, 6.37.

With `Nc1cc(C2CC2)nn1CC(=O)N1CCC[C@@]2(C1)OC(=O)Nc1ccc(Cl)c(F)c12` [Example 28, (R)-1′-(2-(5-Amino-3-cyclopropyl-1H-pyrazol-1-yl)acetyl)-6-chloro-5-fluorospiro[benzo[d][1,3]oxazine-4,3′-piperidin]-2(1H)-one], the pIC50 at Human plasma kallikrein was 7.78; on human factor XIa, 7.26.

Take `Nc1c(Cl)c(C2CC2)nn1CC(=O)N1CCC[C@@]2(C1)OC(=O)Nc1ccc(Cl)c(F)c12` [Example 29, (R)-1′-(2-(5-Amino-4-chloro-3-cyclopropyl-1H-pyrazol-1-yl)acetyl)-6-chloro-5-fluorospiro[benzo[d][1,3]oxazine-4,3'-piperidin]-2(1H)-one]: the pIC50 was 7.49 on Human plasma kallikrein and 5.90 at human factor XIa.

Regarding `Nc1c(F)c(-c2ccc(F)cc2F)nn1CC(=O)N1CCC[C@@]2(C1)OC(=O)Nc1ccc(Cl)c(F)c12` [Example 30, (R)-1′-(2-(5-Amino-3-(2,4-difluorophenyl)-4-fluoro-1H-pyrazol-1-yl)acetyl)-6-chloro-5-fluorospiro[benzo[d][1,3]oxazine-4,3'-piperidin]-2(1H)-one], the pIC50 on Human plasma kallikrein was 7.43; at human factor XIa, 6.79.

The values above are taken from patent publication US20240208994A1, “PLASMA KALLIKREIN INHIBITORS” (Merck Sharp & Dohme LLC, priority 2021, published 2024).
